Results published in US20090232917A1, “COMPOSITION FOR RELIEVING SUBJECTIVE SYMPTOMS OF FATIGUE” (Kyowa Hakko Kogyo Co., Ltd., priority 2005, published 2009).

System: normal subjects (subjective symptoms of fatigue)
Assay: Test Example 1: subjective symptoms of fatigue by visual analogue scale (VAS) method, tablets for 3 weeks
Format: in vivo, human
Conditions: 6 tablets of Example 1 per day for 3 weeks
Experimental: A test was carried out as follows. […] Evaluation was carried out in terms of the subjective symptoms of fatigue in the test subjects at the start and completion of the test using a visual analogue scale (VAS) method.
Specifically, each end of the segment has a criterion of expression. Referring to FIG. 1 or 2, each subject was allowed to mark somewhere in the segment, corresponding to each term of the questionnaires. Among the subjective symptoms of fatigue, questionnaires 1 to 8 represent indices related to “drowsiness and dullness”, and questionnaires 9 to 15 represent indices related to “difficulty in concentration”.
The distance (mm) from the left end of the segment to the marked point was measured and the difference between before and after the test was calculated. The difference by the value before the test was shown in the percentage calculated; and the average value and standard deviation for each group were calculated. […] Further, it was confirmed that there was no difference between two groups at the start of the test.
Further, the test was carried out under a random assignment and the comparison between the double blind parallel groups was carried out.

Cl.NCCC[C@H](N)C(=O)O [ornithine, ornithine hydrochloride]
relieving effect on subjective symptoms of fatigue, all terms (drowsiness and dullness; difficulty in concentration) (VAS questionnaires 1 to 15, versus placebo group, FIG. 3 and 4): relieving effect | "having difficulty thinking": difference between the placebo group and the ornithine group (VAS, unpaired t-test): significant difference
